Experimental data from US20220281863A1, “COMPOUNDS, COMPOSITIONS AND METHODS OF TREATING DISORDERS” (Reverie Labs, Inc., priority 2019, published 2022).

Each compound was assayed against T1, CDK9/CycTI (Homo sapiens, UniProt P50750) (assay: In vitro kinase assay (ADP-Glo Kinase Assay Kit), CDK9/CycTI). Conditions: 30 ng CDK9/CycTI, 30 μM CDKtide, 10 μM ATP, 2 hours at room temperature; 8 to 10-point dose response (Tier2); read-out: IC50 Score.
T1 construct: purchased Carna biosciences 04-110
Type: biochemical
Experimental: In vitro kinase assay was performed in white, 384-low volume plates in 5 μl reaction volume consisting of 30 ng CDK9/CycTI (Carna biosciences #04-110), 30 μM CDKtide (Signalchem #C06-58) and 10 μM ATP made in reaction buffer (40 mM Tris, pH 7.5; 20 mM MgCl2; 0.1 mg/ml BSA; 50 μM DTT) at 1 μM & 10 μM compound concentration for Tier1 assay and 8 to 10-point dose response curve for Tier2 assay. After 2 hours of incubation at room temperature, the amounts of […] in the kinase reaction were quantified using ADP-Glo™ Kinase Assay Kit (Promega #V9102). Briefly, 5 μl of ADP-Glo™ reagent was added to stop the kinase reaction and plate was incubated for 40 minutes at room temperature. Subsequently, 10 μl of Kinase Detection Reagent was added and luminescence was recorded after 30 minutes of incubation at room temperature.
The inhibition of kinase activity was determined relative to positive control (2% DMSO) and IC50 was calculated using GraphPad prism software (four parameter-variable slope equation).

T1 sequence (P50750 whole entry): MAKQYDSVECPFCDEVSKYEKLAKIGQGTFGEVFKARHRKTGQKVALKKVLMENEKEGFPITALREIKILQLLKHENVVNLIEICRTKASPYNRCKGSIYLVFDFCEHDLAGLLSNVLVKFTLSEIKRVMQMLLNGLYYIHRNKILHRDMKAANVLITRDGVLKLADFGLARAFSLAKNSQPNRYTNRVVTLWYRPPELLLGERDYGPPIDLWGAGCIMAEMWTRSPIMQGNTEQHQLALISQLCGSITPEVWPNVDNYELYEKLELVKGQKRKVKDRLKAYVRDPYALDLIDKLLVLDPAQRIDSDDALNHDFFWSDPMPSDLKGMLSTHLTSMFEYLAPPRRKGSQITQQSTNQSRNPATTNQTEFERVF
T1 sequence (O60563 whole entry partner): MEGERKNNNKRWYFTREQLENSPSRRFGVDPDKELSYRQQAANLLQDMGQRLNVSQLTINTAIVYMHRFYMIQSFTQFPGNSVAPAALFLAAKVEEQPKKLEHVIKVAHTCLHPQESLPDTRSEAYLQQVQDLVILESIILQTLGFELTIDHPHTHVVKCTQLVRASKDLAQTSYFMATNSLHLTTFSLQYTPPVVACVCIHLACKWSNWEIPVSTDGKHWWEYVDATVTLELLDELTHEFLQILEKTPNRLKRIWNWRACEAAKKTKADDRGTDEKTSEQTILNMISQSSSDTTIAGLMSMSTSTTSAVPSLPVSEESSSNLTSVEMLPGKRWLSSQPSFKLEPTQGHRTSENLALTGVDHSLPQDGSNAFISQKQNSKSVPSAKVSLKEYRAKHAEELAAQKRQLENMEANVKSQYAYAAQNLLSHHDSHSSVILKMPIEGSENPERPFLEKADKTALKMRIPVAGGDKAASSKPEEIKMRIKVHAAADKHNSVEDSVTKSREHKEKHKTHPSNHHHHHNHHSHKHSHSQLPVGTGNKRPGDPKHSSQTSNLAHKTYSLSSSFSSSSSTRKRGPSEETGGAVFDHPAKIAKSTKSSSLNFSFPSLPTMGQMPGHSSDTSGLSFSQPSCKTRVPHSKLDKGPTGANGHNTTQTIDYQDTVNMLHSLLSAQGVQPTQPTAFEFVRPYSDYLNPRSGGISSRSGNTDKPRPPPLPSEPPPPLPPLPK

IC50	Structure (SMILES)
0.5 to 1 µM	CC(C)(C)OC(=O)N[C@H]1CCC[C@H](C(=O)Nc2nc3ccc4cc(F)ccc4c3s2)C1 [Compound 46]
0.001 to 0.1 µM	O=C1CC[C@H](C(=O)Nc2nc3ccc4cc(F)ccc4c3s2)N1 [Compound 7, (R)—N-(7-fluoronaphtho[2,1-d]thiazol-2-yl)-5-oxopyrrolidine-2-carboxamide]
0.1 to 0.5 µM	N[C@H]1CCC[C@@H](C(=O)Nc2nc3ccc4cc(F)ccc4c3s2)C1 [Compound 63, (1R,3S)-3-amino-N-(7-fluoronaphtho[2,1-d]thiazol-2-yl)cyclohexane-1-carboxamide]
1 to 20 µM	CN(C(=O)OC(C)(C)C)[C@@H]1CCC[C@H](C(=O)Nc2nc3ccc4cc(F)ccc4c3s2)C1 [Compound 24]
0.1 to 0.5 µM	C=CC(=O)N[C@H]1CCC[C@@H](C(=O)Nc2nc3ccc4cc(F)ccc4c3s2)C1 [Compound 33, (1R,3S)-3-acrylamido-N-(7-fluoronaphtho[2,1-d]thiazol-2-yl)cyclohexane-1-carboxamide]
1 to 20 µM	O=C(Nc1nc2ccc3cc(F)ccc3c2s1)c1nncs1 [Compound 80]
0.5 to 1 µM	CC(=O)N[C@@H]1CC[C@H](C(=O)Nc2nc3ccc4cc(F)ccc4c3s2)C1 [Compound 25]
1 to 20 µM	CC(C)(C)OC(=O)N1CCC[C@@H]1C(=O)Nc1nc2ccc3ccccc3c2s1 [Compound 1, tert-Butyl (R)-2-(naphtho[2,1-d]thiazol-2-ylcarbamoyl)pyrrolidine-1-carboxylate]
0.1 to 0.5 µM	O=C(Nc1nc2ccc3cc(F)ccc3c2s1)C1CCNCC1 [Compound 43]
0.1 to 0.5 µM	CS(=O)(=O)N[C@@H]1CCC[C@H](C(=O)Nc2nc3c(s2)-c2ccc(F)cc2CC3)C1 [Compound 13-b, (1S,3R)—N-(7-fluoro-4,5-dihydronaphtho[2,1-d]thiazol-2-yl)-3-(methylsulfonamido)cyclohexane-1-carboxamide]
0.1 to 0.5 µM	O=C(Nc1nc2ccc3cc(F)ccc3c2s1)[C@H]1CCOC1 [Compound 42]
0.1 to 0.5 µM	CC(=O)N1CCNCC1C(=O)Nc1nc2ccc3cc(F)ccc3c2s1 (single isomer, unassigned) [Compound 18-a, 1-acetyl-N-(7-fluoronaphtho[2,1-d]thiazol-2-yl)piperazine-2-carboxamide]
0.001 to 0.1 µM	CN[C@@H]1CC[C@H](C(=O)Nc2nc3ccc4cc(F)ccc4c3s2)C1 [Compound 87, (1S,3R)—N-(7-fluoronaphtho[2,1-d]thiazol-2-yl)-3-(methylamino)cyclopentane-1-carboxamide]
1 to 20 µM	CC(=O)N1CCCC[C@H]1C(=O)Nc1nc2ccc3cc(F)ccc3c2s1 (single isomer, unassigned) [Compound 67]
1 to 20 µM	O=C(Nc1nc2ccc3cc(F)ccc3c2s1)[C@@H]1CCNC1 [Compound 77]
0.001 to 0.1 µM	CC(=O)N(C)[C@@H]1CC[C@H](C(=O)Nc2nc3ccc4cc(F)ccc4c3s2)C1 [Compound 71, (1S,3R)—N-(7-fluoronaphtho[2,1-d]thiazol-2-yl)-3-(N-methylacetamido)cyclopentane-1-carboxamide]
0.001 to 0.1 µM	CC(=O)N[C@@H]1CCC[C@H](C(=O)Nc2nc3ccc4cc(F)ccc4c3s2)C1 [Compound 14, (1S,3R)-3-acetamido-N-(7-fluoronaphtho[2,1-d]thiazol-2-yl)cyclohexane-1-carboxamide]
0.001 to 0.1 µM	CC(=O)N1CCC[C@H](C(=O)Nc2nc3ccc4cc(F)ccc4c3s2)C1 [Compound 45, (S)-1-acetyl-N-(7-fluoronaphtho[2,1-d]thiazol-2-yl)piperidine-3-carboxamide]
0.1 to 0.5 µM	O=C(Nc1nc2ccc3cc(F)ccc3c2s1)[C@H]1CCNC1 [Compound 31, (S)—N-(7-fluoronaphtho[2,1-d]thiazol-2-yl)pyrrolidine-3-carboxamide]
1 to 20 µM	CC(=O)N1CC[C@H]1C(=O)Nc1nc2ccc3cc(F)ccc3c2s1 [Compound 73, (S)-1-acetyl-N-(7-fluoronaphtho[2,1-d]thiazol-2-yl)azetidine-2-carboxamide]
0.001 to 0.1 µM	O=C(Nc1nc2ccc3cc(F)ccc3c2s1)C1CCNC1 (single isomer, unassigned) [Compound 51, N-(7-fluoronaphtho[2,1-d]thiazol-2-yl)pyrrolidine-3-carboxamide]
1 to 20 µM	O=C(Nc1nc2ccc3cc(F)ccc3c2s1)[C@H]1CCCCN1 [Compound 20]

Further lines, the compound ahead of its results:

Structure (SMILES)	IC50
CC(=O)N1CCCC[C@@H]1C(=O)Nc1nc2ccc3cc(F)ccc3c2s1 [Compound 21]	0.001 to 0.1 µM
CC(=O)N1CCC(C(=O)Nc2nc3ccc4cc(F)ccc4c3s2)CC1 [Compound 86]	0.001 to 0.1 µM
O=C(Nc1nc2ccc3cc(F)ccc3c2s1)[C@H]1CCCN1 [Compound 74]	0.5 to 1 µM
CC(C)(C)OC(=O)N1CCC(C(=O)Nc2nc3ccc4cc(F)ccc4c3s2)CC1 [Compound 40]	1 to 20 µM
CC(=O)N[C@H]1CCC[C@@H](C(=O)Nc2nc3ccc4cc(F)ccc4c3s2)C1 [Compound 79, (1R,3S)-3-acetamido-N-(7-fluoronaphtho[2,1-d]thiazol-2-yl)cyclohexane-1-carboxamide]	0.001 to 0.1 µM
CC(=O)N1CCC[C@@H]1C(=O)Nc1nc2ccc3ccccc3c2s1 [Compound 3, (R)-1-acetyl-N-(naphtho[2,1-d]thiazol-2-yl)pyrrolidine-2-carboxamide]	0.1 to 0.5 µM
CC(=O)N1CCOC[C@@H]1C(=O)Nc1nc2ccc3cc(F)ccc3c2s1 [Compound 19, (R)-4-acetyl-N-(7-fluoronaphtho[2,1-d]thiazol-2-yl)morpholine-3-carboxamide]	0.001 to 0.1 µM
CN1CCC(C(=O)Nc2nc3ccc4cc(F)ccc4c3s2)C1 (single isomer, unassigned) [Compound 92, N-(7-fluoronaphtho[2,1-d]thiazol-2-yl)-1-methylpyrrolidine-3-carboxamide]	0.001 to 0.1 µM
O=C(Nc1nc2ccc3cc(F)ccc3c2s1)[C@@H]1CCCO1 [Compound 78, (S)—N-(7-fluoronaphtho[2,1-d]thiazol-2-yl)tetrahydrofuran-2-carboxamide]	0.1 to 0.5 µM
O=C(Nc1nc2ccc3cc(F)ccc3c2s1)[C@@H]1CCCN1 [Compound 47, (S)—N-(7-fluoronaphtho[2,1-d]thiazol-2-yl)pyrrolidine-2-carboxamide]	0.5 to 1 µM
CC(C)(C)OC(=O)N[C@@H]1CC[C@H](C(=O)Nc2nc3ccc4cc(F)ccc4c3s2)C1 [Compound 34]	0.1 to 0.5 µM
CC(=O)N1CC(C(=O)Nc2nc3ccc4cc(F)ccc4c3s2)C1 [Compound 28, 1-acetyl-N-(7-fluoronaphtho[2,1-d]thiazol-2-yl)azetidine-3-carboxamide]	0.1 to 0.5 µM
O=C(Nc1nc2ccc3cc(F)ccc3c2s1)c1ccno1 [Compound 49, N-(7-fluoronaphtho[2,1-d]thiazol-2-yl)isoxazole-5-carboxamide]	1 to 20 µM
O=C(Nc1nc2ccc3cc(F)ccc3c2s1)C1CNC1 [Compound 58, N-(7-fluoronaphtho[2,1-d]thiazol-2-yl)azetidine-3-carboxamide]	0.1 to 0.5 µM
C=CC(=O)N1CCC[C@@H]1C(=O)Nc1nc2ccc3cc(F)ccc3c2s1 [Compound 44, (R)-1-acryloyl-N-(7-fluoronaphtho[2,1-d]thiazol-2-yl)pyrrolidine-2-carboxamide]	0.001 to 0.1 µM
CC(=O)N[C@H]1CCC[C@H](C(=O)Nc2nc3ccc4cc(F)ccc4c3s2)C1 [Compound 16, (1S,3S)-3-acetamido-N-(7-fluoronaphtho[2,1-d]thiazol-2-yl)cyclohexane-1-carboxamide]	0.001 to 0.1 µM
O=C(Nc1nc2ccc3cc(F)ccc3c2s1)C1CCNC1 (single isomer, unassigned) [Compound 37, N-(7-fluoronaphtho[2,1-d]thiazol-2-yl)pyrrolidine-3-carboxamide]	0.001 to 0.1 µM
CN1CCC(C(=O)Nc2nc3ccc4cc(F)ccc4c3s2)C1 (single isomer, unassigned) [Compound 70, N-(7-fluoronaphtho[2,1-d]thiazol-2-yl)-1-methylpyrrolidine-3-carboxamide]	0.001 to 0.1 µM
CS(=O)(=O)N[C@@H]1CCC[C@H](C(=O)Nc2nc3ccc4cc(F)ccc4c3s2)C1 [Compound 13-a, (1S,3R)—N-(7-fluoronaphtho[2,1-d]thiazol-2-yl)-3-(methylsulfonamido)cyclohexane-1-carboxamide]	0.001 to 0.1 µM
O=C(Nc1nc2ccc3cc(F)ccc3c2s1)c1c[nH]cn1 [Compound 53, N-(7-fluoronaphtho[2,1-d]thiazol-2-yl)-1H-imidazole-4-carboxamide]	1 to 20 µM
CC(=O)N1CCC[C@@H]1C(=O)Nc1nc2ccc3cc(Cl)ccc3c2s1 [Compound 17, (R)-1-acetyl-N-(7-chloronaphtho[2,1-d]thiazol-2-yl)pyrrolidine-2-carboxamide]	0.001 to 0.1 µM
CC(C)(C)OC(=O)N1CCCC[C@@H]1C(=O)Nc1nc2ccc3cc(F)ccc3c2s1 [Compound 23]	0.001 to 0.1 µM
CC(=O)N1CCC[C@@H]1C(=O)Nc1nc2ccc3cc(F)ccc3c2s1 [Compound 4, (R)-1-acetyl-N-(7-fluoronaphtho[2,1-d]thiazol-2-yl)pyrrolidine-2-carboxamide]	0.001 to 0.1 µM
O=C(Nc1nc2ccc3cc(F)ccc3c2s1)[C@H]1CC[C@@H](N2CCOCC2)C1 [Compound 57, (1S,3R)—N-(7-fluoronaphtho[2,1-d]thiazol-2-yl)-3-morpholinocyclopentane-1-carboxamide]	0.001 to 0.1 µM
